Measured values from patent US5310727A, “Pharmaceutical compositions for parenteral use containing a calcitonin as the active ingredient” (Scalvo S.p.A., priority 1986, dated 1994).
Where a SMILES comes first, the peptide text is derived from it. Bridges are numbered along the chain shown (N, C = ends).

Experiment: Solubility of the ingredient in water (description)
Assay type: physicochemical
Conditions: white fluffy powder

- Solubility in water: easily soluble in water
Compound: CC(C)C[C@H](NC(=O)[C@H](CCCCN)NC(=O)CNC(=O)[C@H](CC(C)C)NC(=O)[C@@H](NC(=O)[C@@H]1CSSC[C@H](N)C(=O)N[C@@H](CO)C(=O)N[C@@H](CC(N)=O)C(=O)N[C@@H](CC(C)C)C(=O)N[C@@H](CO)C(=O)N[C@@H]([C@@H](C)O)C(=O)N1)C(C)C)C(=O)N[C@@H](CO)C(=O)N[C@@H](CCC(N)=O)C(=O)N[C@@H](CCC(=O)O)C(=O)N[C@@H](CC(C)C)C(=O)N[C@@H](Cc1c[nH]cn1)C(=O)N[C@@H](CCCCN)C(=O)N[C@@H](CC(C)C)C(=O)N[C@@H](CCC(N)=O)C(=O)N[C@H](C(=O)N[C@@H](Cc1ccc(O)cc1)C(=O)N1CCC[C@H]1C(=O)N[C@@H](CCCNC(=N)N)C(=O)N[C@H](C(=O)N[C@@H](CC(=O)O)C(=O)N[C@H](C(=O)NCC(=O)N[C@@H](C)C(=O)NCC(=O)N[C@H](C(=O)N1CCC[C@H]1C(N)=O)[C@@H](C)O)C(C)C)[C@@H](C)O)[C@@H](C)O [eel calcitonin, eel calcitonin (synthetic)] (H-CSNLSTCVLGKLSQELHKLQTYPRTDVGAGTP-NH2; disulfide 1-7)
